Patent US12178842B2, “PCSK9 antagonist compounds” (MERCK SHARP & DOHME LLC, priority 2019, dated 2024)

Legend:
Type in all cases: binding
PCSK9 [1] = target: T1, PCSK9 (Homo sapiens, UniProt Q8NBP7); assay: PCSK9 Alexa FRET Ultra TR-FRET assay
T1 construct: biotin (biotinylated); purchased
Procedure, shortened: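 Competition of compounds with AlexaFluor-tagged cyclic peptide (1920 nM solution, not final) for europium-labeled PCSK9, read by TR-FRET after at least 2 h at room temperature. IC50 from sigmoidal fit, converted to Ki (nM) using peptide KD; falling europium counts flag false positives.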

PCSK9 [2] = target: T1, PCSK9; assay: PCSK9 Alexa FRET Standard TR-FRET assay; conditions: Ki calculated from IC50 and KD of AF cyclic peptide Reagent A; 0.5 nM PCSK9, 20 nM AF cyclic peptide; read-out: Alexa FRET Stdt TR-FRET
Procedure, shortened: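 TR-FRET displacement with final 0.5 nM biotinylated PCSK9, 1.25 nM streptavidin-Eu and 20 nM AlexaFluor cyclic peptide in 50 mM HEPES pH 7.4, 0.15 M NaCl, 5 mM CaCl2, 0.01% BSA, 0.01% P20; ≥2 h at room temperature. IC50 by sigmoidal fit, converted to Ki (nM) using tracer KD.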

PCSK9 [3] = target: T1, PCSK9; assay: PCSK9 Alexa FRET Plus TR-FRET assay
Procedure, shortened: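 TR-FRET competition between europium-labeled PCSK9 and AlexaFluor-tagged cyclic peptide (prepared at 1920 nM stock), incubated at least 2 h at room temperature. IC50 from sigmoidal nonlinear fit converted to Ki using the peptide KD; falling europium counts flag false-positive inhibition; values reported in nM.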

[4] = Ki Ultra, calculated from IC50 and KD of AF cyclic peptide, 0.5 nM PCSK9, 960 nM AF cyclic peptide, read-out: Alexa FRET Ultra TR-FRET
[5] = Ki calculated from IC50 and KD of AF cyclic peptide Reagent B, 0.5 nM PCSK9, 960 nM AF cyclic peptide, read-out: Alexa FRET Plus TR-FRET

T1 sequence (Q8NBP7 153-692): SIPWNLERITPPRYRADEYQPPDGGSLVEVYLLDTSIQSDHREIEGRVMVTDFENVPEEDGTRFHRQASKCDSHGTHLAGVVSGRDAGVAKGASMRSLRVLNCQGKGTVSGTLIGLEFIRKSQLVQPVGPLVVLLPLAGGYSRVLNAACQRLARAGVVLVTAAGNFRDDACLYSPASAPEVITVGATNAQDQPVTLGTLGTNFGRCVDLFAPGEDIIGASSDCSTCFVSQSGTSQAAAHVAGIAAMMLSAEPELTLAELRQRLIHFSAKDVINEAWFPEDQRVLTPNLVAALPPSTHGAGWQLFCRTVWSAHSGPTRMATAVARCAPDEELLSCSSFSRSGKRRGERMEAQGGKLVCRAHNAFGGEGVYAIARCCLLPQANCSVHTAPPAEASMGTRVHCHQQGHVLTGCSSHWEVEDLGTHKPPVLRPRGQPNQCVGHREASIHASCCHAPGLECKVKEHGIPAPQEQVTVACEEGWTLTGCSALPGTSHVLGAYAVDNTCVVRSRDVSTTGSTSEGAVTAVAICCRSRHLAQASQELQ

Row | SMILES | Ki (PCSK9 [1]; [4]) | Ki (PCSK9 [2]) | Ki (PCSK9 [3]; [5]) | Ki (PCSK9 [1]) | Ki (PCSK9 [3])
1 | COc1ccc(C[C@@H]2NC(=O)[C@H]([C@@H](C)O)NC(=O)[C@@H]3[C@@H]4CCN3C(=O)[C@@H]3Cc5cn(c6ccc(F)cc56)CCCCCCN(Cc5ccc(cc5)CCNC(=O)[C@]5(C)CCCN5C2=O)C(=O)CCC(=O)N[C@@H](C)C(=O)N[C@H](CNC(=O)CCOCCOCC[N+](C)(C)CCNC(=O)COCCOCCNC(=O)CC[C@H](NC(=O)CC[C@H](NC(=O)CC[C@H](NC(=O)CCCCCCCCCCCCCCCCC(=O)O)C(=O)O)C(=O)O)C(=O)O)C(=O)N[C@@H](Cc2cccc(c2)CNC(=O)CO4)C(=O)N3)cc1 [Ex-48] | 0.009 nM | < 1.26 nM | < 0.006 nM | – | –
2 | CCCCCCCCCCCCCCCC(=O)NCC[N+](C)(C)CCOCCOCCC(=O)NCCOCCOCC(=O)NCCOCCOCC(=O)NC[C@H]1NC(=O)[C@H](C)NC(=O)CCC(=O)N2CCCCCCn3cc(c4cc(F)ccc43)C[C@@H]3NC(=O)[C@H](Cc4cccc(c4)CNC(=O)CO[C@H]4CCN(C3=O)[C@@H]4C(=O)N[C@@H]([C@@H](C)O)C(=O)N[C@@H](Cc3ccc(OC)cc3)C(=O)N3CCC[C@@]3(C)C(=O)NCCc3ccc(cc3)C2)NC1=O [Ex-38] | 0.012 nM | < 1.26 nM | 0.013 nM | – | –
3 | COc1ccc(C[C@@H]2NC(=O)[C@H]([C@@H](C)O)NC(=O)[C@@H]3[C@@H]4CCN3C(=O)[C@@H]3Cc5cn(c6ccc(F)cc56)CCCCCCN(Cc5ccc(cc5)CCNC(=O)[C@]5(C)CCCN5C2=O)C(=O)CCC(=O)N[C@@H](CNC(=O)CCOCCOCC[N+](C)(C)CCNC(=O)COCCOCCNC(=O)COCCOCCNC(=O)CC[C@H](NC(=O)CCCCCCCCCCCCCCC(=O)O)C(=O)O)C(=O)N[C@H](C)C(=O)N[C@@H](Cc2cccc(c2)CNC(=O)CO4)C(=O)N3)cc1 [Ex-57] | 0.034 nM | < 1.26 nM | 0.009 nM | – | –
4 | COc1ccc(C[C@@H]2NC(=O)[C@H]([C@@H](C)O)NC(=O)[C@@H]3[C@@H]4CCN3C(=O)[C@@H]3Cc5cn(c6ccc(F)cc56)CCCCCCN(Cc5ccc(cc5)CCNC(=O)[C@]5(C)CCCN5C2=O)C(=O)CCC(=O)N[C@@H](C)C(=O)N[C@H](CNC(=O)COCCOCCNC(=O)CC[C@H](NC(=O)CCOCCOCC[N+](C)(C)CCNC(=O)COCCOCCNC(=O)COCCOCCNC(=O)CC[C@H](NC(=O)CCCCCCCCCCCCCCCCC(=O)O)C(=O)O)C(=O)O)C(=O)N[C@@H](Cc2cccc(c2)CNC(=O)CO4)C(=O)N3)cc1 [Ex-53] | – | < 1.26 nM | – | 0.014 nM | 0.01 nM
5 | COc1ccc(C[C@@H]2NC(=O)[C@H]([C@@H](C)O)NC(=O)[C@@H]3[C@@H]4CCN3C(=O)[C@@H]3Cc5cn(c6ccc(F)cc56)CCCCCCN(Cc5ccc(cc5)CCNC(=O)[C@]5(C)CCCN5C2=O)C(=O)CCC(=O)N[C@@H](C)C(=O)N[C@H](CNC(=O)CCOCCOCC[N+](C)(C)CCNC(=O)COCCOCCNC(=O)COCCOCCNC(=O)CC[C@H](NC(=O)CCCCCCCCCCCCCCC(=O)N[C@@H](CC(=O)O)C(=O)O)C(=O)O)C(=O)N[C@@H](Cc2cccc(c2)CNC(=O)CO4)C(=O)N3)cc1 [Ex-56] | 0.004 nM | < 1.26 nM | < 0.006 nM | – | –
6 | COc1ccc(C[C@@H]2NC(=O)[C@H]([C@@H](C)O)NC(=O)[C@@H]3[C@@H]4CCN3C(=O)[C@@H]3Cc5cn(c6ccc(F)cc56)CCCCCCN(Cc5ccc(cc5)CCNC(=O)[C@]5(C)CCCN5C2=O)C(=O)CCC(=O)N[C@@H](C)C(=O)N[C@H](CNC(=O)COCCOCC[N+](C)(C)CCOCCNC(=O)COCCOCCNC(=O)COCCOCCNC(=O)CC[C@H](NC(=O)CC[C@H](NC(=O)CCCCCCCCCCCCCCC(=O)O)C(=O)O)C(=O)O)C(=O)N[C@@H](Cc2cccc(c2)CNC(=O)CO4)C(=O)N3)cc1 [Ex-47] | 0.003 nM | < 1.26 nM | < 0.006 nM | – | –
7 | COc1ccc(C[C@@H]2NC(=O)[C@H]([C@@H](C)O)NC(=O)[C@@H]3[C@@H]4CCN3C(=O)[C@@H]3Cc5cn(c6ccc(F)cc56)CCCCCCN(Cc5ccc(cc5)CCNC(=O)[C@]5(C)CCCN5C2=O)C(=O)CCC(=O)N[C@@H](CNC(=O)CCOCCOCC[N+](C)(C)CCNC(=O)COCCOCCNC(=O)COCCOCCNC(=O)CC[C@@H](NC(=O)CC[C@@H](NC(=O)CCCCCCCCCCCCCCCCC(=O)O)C(=O)O)C(=O)O)C(=O)N[C@H](C)C(=O)N[C@@H](Cc2cccc(c2)CNC(=O)CO4)C(=O)N3)cc1 [Ex-59] | 0.101 nM | < 1.26 nM | 0.02 nM | – | –
8 | COc1ccc(C[C@@H]2NC(=O)[C@H]([C@@H](C)O)NC(=O)[C@@H]3[C@@H]4CCN3C(=O)[C@@H]3Cc5cn(c6ccc(F)cc56)CCCCCCN(Cc5ccc(cc5)CCNC(=O)[C@]5(C)CCCN5C2=O)C(=O)CCC(=O)N[C@@H](C)C(=O)N[C@H](CNC(=O)CCOCCOCCNC(=O)CCCCCCCCCCCCCCCCC(=O)O)C(=O)N[C@@H](Cc2cccc(c2)CNC(=O)CO4)C(=O)N3)cc1 [Ex-24] | 0.018 nM | < 1.26 nM | 0.009 nM | – | –
9 | COc1ccc(C[C@@H]2NC(=O)[C@H]([C@@H](C)O)NC(=O)[C@@H]3[C@@H]4CCN3C(=O)[C@@H]3Cc5cn(c6ccc(F)cc56)CCCCCCN(Cc5ccc(cc5)CCNC(=O)[C@]5(C)CCCN5C2=O)C(=O)CCC(=O)N[C@@H](C)C(=O)N[C@H](CNC(=O)COCCOCCNC(=O)COCCOCCNC(=O)CCOCCOCC[N+](C)(C)CCNC(=O)COCCOCCNC(=O)COCCOCCNC(=O)CC[C@H](NC(=O)CCCCCCCCCCCCCCCCC(=O)O)C(=O)O)C(=O)N[C@@H](Cc2cccc(c2)CNC(=O)CO4)C(=O)N3)cc1 [Ex-29] | 0.013 nM | < 1.26 nM | 0.011 nM | – | –
10 | COc1ccc(C[C@@H]2NC(=O)[C@H]([C@@H](C)O)NC(=O)[C@@H]3[C@@H]4CCN3C(=O)[C@@H]3Cc5cn(c6ccc(F)cc56)CCCCCCN(Cc5ccc(cc5)CCNC(=O)[C@]5(C)CCCN5C2=O)C(=O)CCC(=O)N[C@@H](C)C(=O)N[C@H](CNC(=O)CCOCCOCC[N+](C)(C)CCNC(=O)CC[C@H](NC(=O)CCCCCCCCCCCCCCCCC(=O)O)C(=O)O)C(=O)N[C@@H](Cc2cccc(c2)CNC(=O)CO4)C(=O)N3)cc1 [Ex-7] | – | < 1.26 nM | – | 0.013 nM | 0.008 nM
11 | COc1ccc(C[C@@H]2NC(=O)[C@H]([C@@H](C)O)NC(=O)[C@@H]3[C@@H]4CCN3C(=O)[C@@H]3Cc5cn(c6ccc(F)cc56)CCCCCCN(Cc5ccc(cc5)CCNC(=O)[C@]5(C)CCCN5C2=O)C(=O)CCC(=O)N[C@@H](CNC(=O)COCCOCC[N+](C)(C)CCOCCNC(=O)COCCOCCNC(=O)COCCOCCNC(=O)CC[C@H](NC(=O)CC[C@H](NC(=O)CCCCCCCCCCCCCCC(=O)O)C(=O)O)C(=O)O)C(=O)N[C@H](CNC(=O)CCOCCOCC[N+](C)(C)C)C(=O)N[C@@H](Cc2cccc(c2)CNC(=O)CO4)C(=O)N3)cc1 [Ex-66] | 0.027 nM | < 1.26 nM | 0.007 nM | – | –
12 | COc1ccc(C[C@@H]2NC(=O)[C@H]([C@@H](C)O)NC(=O)[C@@H]3[C@@H]4CCN3C(=O)[C@@H]3Cc5cn(c6ccc(F)cc56)CCCCCCN(Cc5ccc(cc5)CCNC(=O)[C@]5(C)CCCN5C2=O)C(=O)CCC(=O)N[C@@H](C)C(=O)N[C@H](CNC(=O)COCCOCCNC(=O)COCCOCCNC(=O)CC[C@H](NC(=O)CCCCC[N+](C)(C)CCNC(=O)CCCCCCCCCCCCCCCCC(=O)O)C(=O)O)C(=O)N[C@@H](Cc2cccc(c2)CNC(=O)CO4)C(=O)N3)cc1 [Ex-5] | – | < 1.26 nM | – | 0.007 nM | < 0.006 nM
13 | COc1ccc(C[C@@H]2NC(=O)[C@H]([C@@H](C)O)NC(=O)[C@@H]3[C@@H]4CCN3C(=O)[C@@H]3Cc5cn(c6ccc(F)cc56)CCCCCCN(Cc5ccc(cc5)CCNC(=O)[C@]5(C)CCCN5C2=O)C(=O)CCC(=O)N[C@@H](C)C(=O)N[C@H](CNC(=O)COCCOCC[N+](C)(C)CCOCCNC(=O)COCCOCCNC(=O)COCCOCCNC(=O)CC[C@H](NC(=O)CCCCCCCCCCCCCCCCC(=O)O)C(=O)O)C(=O)N[C@@H](Cc2cccc(c2)CNC(=O)CO4)C(=O)N3)cc1 [Ex-31] | 0.006 nM | < 1.26 nM | < 0.006 nM | – | –
14 | CCCCCCC(=O)NCCCCCCCC(=O)N[C@@H](CCC(=O)NCCOCCOCC(=O)NCCOCCOCC(=O)NCC[N+](C)(C)CCCCCC(=O)NC[C@H]1NC(=O)[C@H](C)NC(=O)CCC(=O)N2CCCCCCn3cc(c4cc(F)ccc43)C[C@@H]3NC(=O)[C@H](Cc4cccc(c4)CNC(=O)CO[C@H]4CCN(C3=O)[C@@H]4C(=O)N[C@@H]([C@@H](C)O)C(=O)N[C@@H](Cc3ccc(OC)cc3)C(=O)N3CCC[C@@]3(C)C(=O)NCCc3ccc(cc3)C2)NC1=O)C(=O)O [Ex-19] | 0.001 nM | < 1.26 nM | < 0.006 nM | – | –
15 | COc1ccc(C[C@@H]2NC(=O)[C@H]([C@@H](C)O)NC(=O)[C@@H]3[C@@H]4CCN3C(=O)[C@@H]3Cc5cn(c6ccc(F)cc56)CCCCCCN(Cc5ccc(cc5)CCNC(=O)[C@]5(C)CCCN5C2=O)C(=O)CCC(=O)N[C@@H](CNC(=O)COCCOCC[N+](C)(C)CCOCCNC(=O)COCCOCCNC(=O)COCCOCCNC(=O)CC[C@H](NC(=O)CC[C@H](NC(=O)CCCCCCCCCCCCCCC(=O)O)C(=O)O)C(=O)O)C(=O)N[C@H](C)C(=O)N[C@@H](Cc2cccc(c2)CNC(=O)CO4)C(=O)N3)cc1 [Ex-60] | 0.062 nM | < 1.26 nM | 0.008 nM | – | –
